Experimental data from the CombiSolv-Exp solvation set (Vermeire and Green 2021).
Each block holds one compound with its values, some of them ahead of it.

Assay: solvent given as SMILES

Structure (SMILES): CC(C)C(C)(C)C
solvation free energy, 298 K (in C=CCCCCCCCCCCCCCC): -3.77 kcal/mol
solvation free energy, 298 K (in CN1CCCC1=O): -2.78 kcal/mol
solvation free energy, 298 K (in O): 2.62 kcal/mol

Structure (SMILES): CCC[N+](=O)[O-]
solvation free energy, 298 K (in CC(C)CC(C)(C)C): -3.94 kcal/mol
solvation free energy, 298 K (in CCCCCC): -4.05 kcal/mol
solvation free energy, 298 K (in CCCCCCC): -3.97 kcal/mol
solvation free energy, 298 K (in CCCCCCCC): -3.95 kcal/mol
solvation free energy, 298 K (in CCCCCCCCCCCCCCCC): -3.79 kcal/mol
solvation free energy, 298 K (in CCCCCCCCO): -4.44 kcal/mol
solvation free energy, 298 K (in O): -3.38 kcal/mol
solvation free energy, 298 K (in [2H]O[2H]): -3.44 kcal/mol

Structure (SMILES): CN(Cc1ccccc1)N=O
solvation free energy, 298 K (in O): -7.03 kcal/mol

Structure (SMILES): COc1cc(C2c3cc4c(cc3C(O)C3COC(=O)C23)OCO4)cc(OC)c1OC (stereo not drawn)
solvation free energy, 298 K (in CC(C)O): -25.1 kcal/mol
solvation free energy, 298 K (in CCO): -25.3 kcal/mol

Structure (SMILES): OCCCO
solvation free energy, 298 K (in O): -9.96 kcal/mol

Structure (SMILES): O=C(O)CCCCCC(=O)O
solvation free energy, 298 K (in CCO): -14.2 kcal/mol
solvation free energy, 298 K (in CCOCC): -12.8 kcal/mol

Structure (SMILES): CCCCOC(=O)c1ccccc1C(=O)OCc1ccccc1
solvation free energy, 298 K (in O): -9.55 kcal/mol

Structure (SMILES): O=[N+]([O-])c1ccc(O)c([N+](=O)[O-])c1
solvation free energy, 298 K (in CCCCCC): -8.09 kcal/mol
solvation free energy, 298 K (in CCCCCCC): -8.08 kcal/mol
solvation free energy, 298 K (in CCCCCCCC): -8.05 kcal/mol
solvation free energy, 298 K (in O): -7.61 kcal/mol

Structure (SMILES): OC(CCl)CCl
solvation free energy, 298 K (in CCCCOC(C)=O): -7.58 kcal/mol
solvation free energy, 298 K (in Clc1ccccc1): -6.02 kcal/mol

Structure (SMILES): S=C=S
solvation free energy, 298 K (in C1CCCC1): -3.57 kcal/mol
solvation free energy, 298 K (in C1COCCO1): -3.03 kcal/mol
solvation free energy, 298 K (in CC(C)=O): -3.07 kcal/mol
solvation free energy, 298 K (in CC(C)CC(C)(C)C): -3.25 kcal/mol
solvation free energy, 298 K (in CCC(C)=O): -3.1 kcal/mol
solvation free energy, 298 K (in CCCCCCC): -3.33 kcal/mol
solvation free energy, 298 K (in CCCCCCCC): -3.29 kcal/mol
solvation free energy, 298 K (in CCCCCCCCO): -3.11 kcal/mol
solvation free energy, 298 K (in CCCCCO): -3.31 kcal/mol
solvation free energy, 298 K (in CCCCO): -3.08 kcal/mol
solvation free energy, 298 K (in CCO): -3.1 kcal/mol
solvation free energy, 298 K (in CCOC(C)=O): -3.12 kcal/mol
solvation free energy, 298 K (in CN(C)C=O): -3 kcal/mol
solvation free energy, 298 K (in Cc1ccc(C)cc1): -3.55 kcal/mol
solvation free energy, 298 K (in ClC(Cl)(Cl)Cl): -3.62 kcal/mol
solvation free energy, 298 K (in ClC(Cl)=C(Cl)Cl): -3.52 kcal/mol
solvation free energy, 298 K (in ClCCCl): -3.29 kcal/mol
solvation free energy, 298 K (in N#Cc1ccccc1): -3.18 kcal/mol
solvation free energy, 298 K (in O): 0.16 kcal/mol
solvation free energy, 298 K (in O=C1CCCCC1): -3.31 kcal/mol
solvation free energy, 298 K (in c1ccccc1): -3.6 kcal/mol

Structure (SMILES): CCCBr
solvation free energy, 298 K (in C=CCCCCCCCCCCCCCC): -3.56 kcal/mol
solvation free energy, 298 K (in ClC(Cl)(Cl)Cl): -4.17 kcal/mol
solvation free energy, 298 K (in O): -0.56 kcal/mol

Structure (SMILES): CC(C)CC(C)(C)C
solvation free energy, 298 K (in C1CCOC1): -4.65 kcal/mol
solvation free energy, 298 K (in CC1CCS(=O)(=O)C1): -2.59 kcal/mol
solvation free energy, 298 K (in CC#N): -3.11 kcal/mol
solvation free energy, 298 K (in CC(C)(C)O): -3.6 kcal/mol
solvation free energy, 298 K (in CC(C)O): -3.68 kcal/mol
solvation free energy, 298 K (in CC(C)OC(C)C): -4.57 kcal/mol
solvation free energy, 298 K (in CCC(C)=O): -4.05 kcal/mol
solvation free energy, 298 K (in CCCCCCCC): -4.53 kcal/mol
solvation free energy, 298 K (in CCCCCCCCCCCCCCCC): -4.26 kcal/mol
solvation free energy, 298 K (in CCCCCCCCCCO): -3.9 kcal/mol
solvation free energy, 298 K (in CCCCCCO): -4.07 kcal/mol
solvation free energy, 298 K (in CCCCCO): -3.89 kcal/mol
solvation free energy, 298 K (in CCCCCl): -4.57 kcal/mol
solvation free energy, 298 K (in CCCO): -3.67 kcal/mol
solvation free energy, 298 K (in CCO): -3.84 kcal/mol
solvation free energy, 298 K (in CN1CCCC1=O): -3.12 kcal/mol
solvation free energy, 298 K (in CN(C)C=O): -3.18 kcal/mol
solvation free energy, 298 K (in COC(C)(C)C): -4.65 kcal/mol
solvation free energy, 298 K (in N#CCCOCCC#N): -1.86 kcal/mol
solvation free energy, 298 K (in O): 2.92 kcal/mol
solvation free energy, 298 K (in O=CN1CCOCC1): -2.44 kcal/mol
solvation free energy, 298 K (in OCCO): -1.05 kcal/mol
solvation free energy, 298 K (in OCCOCCO): -1.78 kcal/mol
solvation free energy, 298 K (in OCCOCCOCCO): -1.88 kcal/mol
solvation free energy, 298 K (in OCCS): -2.36 kcal/mol

Structure (SMILES): CCCCCCCCCC(C)=O
solvation free energy, 298 K (in O): -2.15 kcal/mol

Structure (SMILES): COCCN
solvation free energy, 298 K (in O): -6.55 kcal/mol

Structure (SMILES): C=CC(C)(CCC=C(C)C)OC(=O)CCC (stereo not drawn)
solvation free energy, 298 K (in O): -3.38 kcal/mol

Structure (SMILES): CCCCCC#N
solvation free energy, 298 K (in CCCCCCCCCCCCCCCC): -4.68 kcal/mol
solvation free energy, 298 K (in CCCCCCCCO): -5.54 kcal/mol
solvation free energy, 298 K (in O): -3.28 kcal/mol
solvation free energy, 298 K (in [2H]O[2H]): -3.25 kcal/mol

Structure (SMILES): CN(C)c1ccccc1
solvation free energy, 298 K (in CCCCCCCCCCCCCCCC): -6.4 kcal/mol
solvation free energy, 298 K (in O): -3.45 kcal/mol

Structure (SMILES): Cc1cc(C)c2ccccc2c1
solvation free energy, 298 K (in O): -2.47 kcal/mol

Structure (SMILES): CC(C)=CCCC1(C)C2CC3C(C2)C31C (stereo not drawn)
solvation free energy, 298 K (in O): 0.55 kcal/mol

Structure (SMILES): Clc1ccc(-c2ccc(Cl)c(Cl)c2)cc1Cl
solvation free energy, 298 K (in O): -3.62 kcal/mol

Structure (SMILES): Clc1cc(Cl)c(-c2cc(Cl)c(Cl)cc2Cl)cc1Cl
solvation free energy, 298 K (in CCCCCCCCO): -12.9 kcal/mol
solvation free energy, 298 K (in O): -3.1 kcal/mol

Continued, values first:

solvation free energy, 298 K (in O): -8.76 kcal/mol
Structure (SMILES): COc1cc(C=O)ccc1O

solvation free energy, 298 K (in O): -21.2 kcal/mol
Structure (SMILES): Nc1ccc(S(=O)(=O)Nc2ccnn2-c2ccccc2)cc1

solvation free energy, 298 K (in O): 4.83 kcal/mol
Structure (SMILES): CCC(C)CCCC(C)CCCC(C)CCCC(C)C (stereo not drawn)

solvation free energy, 298 K (in CN1CCCC1=O): -4.22 kcal/mol
solvation free energy, 298 K (in CN(C)C=O): -4.23 kcal/mol
solvation free energy, 298 K (in O): 0.7 kcal/mol
Structure (SMILES): C1=CCCCCC1

solvation free energy, 298 K (in O): -0.93 kcal/mol
Structure (SMILES): CCc1cccs1

solvation free energy, 298 K (in O): -9.89 kcal/mol
Structure (SMILES): CC(=O)c1c(C)[nH]n(-c2ccccc2)c1=O

solvation free energy, 298 K (in O): -4.78 kcal/mol
Structure (SMILES): CC(=O)Oc1ccccc1

solvation free energy, 298 K (in CCCCCCC): -5.35 kcal/mol
solvation free energy, 298 K (in CCCCCCCCCCCCCCCC): -5.21 kcal/mol
solvation free energy, 298 K (in CCCCCCCCO): -5.46 kcal/mol
solvation free energy, 298 K (in O): -2.53 kcal/mol
solvation free energy, 298 K (in [2H]O[2H]): -2.62 kcal/mol
Structure (SMILES): COc1ccccc1

solvation free energy, 298 K (in O): -1.29 kcal/mol
Structure (SMILES): FC(F)C(F)Oc1ccccc1 (stereo not drawn)

solvation free energy, 298 K (in O): -3.94 kcal/mol
Structure (SMILES): CCCCC(O)CC (stereo not drawn)

solvation free energy, 298 K (in CCCCCC): -6.16 kcal/mol
Structure (SMILES): ON=C1CCCCC1

solvation free energy, 298 K (in O): -17.9 kcal/mol
Structure (SMILES): c1ccc2c(c1)OCCOCCOCCOCCOCCO2

solvation free energy, 298 K (in O): -14.2 kcal/mol
Structure (SMILES): O=C1c2ccccc2C(=O)c2c(NCCO)cccc21

solvation free energy, 298 K (in O): -18.4 kcal/mol
Structure (SMILES): CC(=O)NS(=O)(=O)c1ccc(N)cc1

solvation free energy, 298 K (in O): -12.8 kcal/mol
Structure (SMILES): CCCCOCCOC(=O)c1ccccc1C(=O)OCCOCCCC
